Values of other authors in patent US20260083654A1, “PHOTOPROTECTIVE SYSTEM CONSISTING OF 4 SUNSCREENS” (PIERRE FABRE DERMO-COSMETIQUE, priority 2019, published 2026).
“And” between values parts separate entries of the source, which are not always exact repeats. Equal entries are not always repeated.

Conditions: two peaks, broad spectrum filter

absorption peaks: 310 nm and 340 nm
SMILES: CCCCC(CC)COc1ccc(-c2nc(-c3ccc(OC)cc3)nc(-c3ccc(OCC(CC)CCCC)cc3O)n2)c(O)c1 (stereo not shown) [BEMT, 2,4-bis[4-(2-ethylhexyloxy)-2-hydroxyphenyl]-6-(4-methoxyphenyl)-1,3,5-triazine]
